According to patent US5843941A, “Ras farnesyl transferase inhibitors” (Genentech, Inc., priority 1994, dated 1998):

How the values were obtained:
[1] = test system: untransformed rat-1 fibroblasts; experiment: Changes in morphology of untransformed cells; type: cell-based; conditions: FIG. 6E and F
Method: Compound 27A (denoted as BG269A in the figure) and compound 27B (denoted as BG269B in the figure) were added at 250 μM to test whether these compounds would induce reversion to a more normal phenotype as had been previously shown with microinjection of anti-Ras antibodies (see Feramisco, J. R. et al Nature 314, 639 (1985)). The H-ras transformed cells, denoted as rat 2.2 cells, were generated by transfection of rat-1 fibroblasts as described (see Seeburg, P. H., Colby, W. W., Capon, D. J., Goeddel, D. V., and Levinson, A. D. Nature 312,71 (1984)). Cells that overgrew the monolayer were extracted and plated onto agar to obtain a cell line displaying a fully transformed phenotype. Untransformed rat-1 fibroblasts and src-transformed rat-1 fibroblasts were also treated. The src-transformed cells were generated by co-transfection of rat-1 fibroblasts with pSV3.Neo.src, a vector containing the gene for src as well as the gene that confers G418 resistance, both under control of SV40 early promoters. G418-resistant cell clones that diplayed a transformed phenotype were used to generate the cell line. On day 0, cells were plated in monolayer culture at 3×10^3 cells per well (24-well plates) in 1 ml DMEM supplemented with 10% FCS, 100 U/ml penicillin, 10 μg/ml streptomycin, 2% DMSO, and 0.5 mM DTT with and without 200 μM inhibitor. On day 3, the cells were refed with the same medium. […]

[2] = target: T1, Rab GG transferase (Rattus norvegicus, UniProt Q08602+Q08603); experiment: Inhibition of Rab GG transferase; type: biochemical; conditions: FIG. 1C; Rab1A substrate; read-out: IC0.5 Rab GG transferase
T1 construct: purified Components A and B of Rab GG transferase; from tissue
T1 sequence (Q08602 1-567): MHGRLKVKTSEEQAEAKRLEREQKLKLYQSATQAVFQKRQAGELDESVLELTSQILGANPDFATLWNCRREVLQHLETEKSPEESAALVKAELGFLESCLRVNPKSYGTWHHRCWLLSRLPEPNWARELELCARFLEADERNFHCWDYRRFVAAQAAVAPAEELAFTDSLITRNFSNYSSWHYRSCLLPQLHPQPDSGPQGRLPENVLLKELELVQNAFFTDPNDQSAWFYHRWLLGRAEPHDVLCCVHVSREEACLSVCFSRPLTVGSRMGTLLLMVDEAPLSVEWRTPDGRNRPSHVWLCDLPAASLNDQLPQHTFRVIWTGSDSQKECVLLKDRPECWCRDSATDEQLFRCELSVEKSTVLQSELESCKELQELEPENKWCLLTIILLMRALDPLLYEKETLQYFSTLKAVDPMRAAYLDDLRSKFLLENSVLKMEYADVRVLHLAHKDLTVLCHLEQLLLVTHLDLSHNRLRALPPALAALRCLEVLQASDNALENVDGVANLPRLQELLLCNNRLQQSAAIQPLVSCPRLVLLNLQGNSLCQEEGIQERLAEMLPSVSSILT
T1 sequence (Q08603 1-331): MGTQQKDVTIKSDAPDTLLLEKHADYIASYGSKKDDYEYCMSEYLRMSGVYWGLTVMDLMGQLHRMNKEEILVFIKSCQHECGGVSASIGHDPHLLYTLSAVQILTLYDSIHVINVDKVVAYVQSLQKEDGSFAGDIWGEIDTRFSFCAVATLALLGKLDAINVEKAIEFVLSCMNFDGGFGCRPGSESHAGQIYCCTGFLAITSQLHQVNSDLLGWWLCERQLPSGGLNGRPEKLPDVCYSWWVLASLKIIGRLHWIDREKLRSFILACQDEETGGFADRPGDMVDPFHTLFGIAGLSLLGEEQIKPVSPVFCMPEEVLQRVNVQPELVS

[3] = test system: CALU-3 cells; experiment: Growth inhibition of human tumor line CALU-3; type: cell-based; conditions: CALU-3, lung, ras transformed, read-out: % growth inhib.
Method: (§1) To examine the effects of farnesyltransferase inhibition on cell growth, three cell lines (ras-transformed rat-1, src-transformed rat-1, and parental rat-1 cells) were seeded (see FIG. 7) at low density and allowed to grow for 10 days in the absence or presence of increasing concentrations of BZA-5B (compound 37). See Example 128 for description of cells. On day 0, cells were plated in monolayer culture at 2×10^3 cells per well (24-well plates) in 1 ml DMEM supplemented with 10% fetal calf serum, 100 U/ml penicillin, 100 μg/ml streptomycin, 0.5 mM DTT, 0.025% DMSO, and the indicated concentration of BZA-5B (compound 37). On days 3 and 7, cells were washed and refed with the same medium. At the time indicated in FIG. 7, cells were harvested by trypsinization and counted in a Coulter counter. Panels A, C, E show the growth rate of each cell line in the absence of inhibitor. Panels B, D, F show the inhibition of growth as a function of concentration of BZA-5B at each time point. […]
(§2) To examine the effects of farnesyltransferase inhibition on the growth of human tumor cell lines, several such lines were treated with 25 μM BZA-5B (compound 37B) using a procedure similar to that described in Example 129 above. Cells were refed with fresh media at days 3 and 6 containing the inhibitor, and were harvested and counted as described above. […]

[4] = test system: Hela cells; experiment: Growth inhibition of human tumor line Hela; type: cell-based; conditions: cervix, not ras transformed, read-out: % growth inhib.
Method: as §1, §2

Row | Structure (SMILES) | effect on morphology of untransformed cells [1] | IC50 [2] | inhibition at 25 µM [3] | inhibition at 25 µM [4]
1 | CSCC[C@H](NC(=O)CN1C(=O)C(N(C)C(=O)[C@@H](N)CS)N=C(c2ccccc2)c2ccccc21)C(=O)O (single isomer, unassigned) [27B] | no apparent effect on the morphology of untransformed rat-1 fibroblasts | 5.5 µM |  | 
2 | COC(=O)[C@H](CCSC)NC(=O)CN1C(=O)C(N(C)C(=O)[C@@H](N)CS)N=C(c2ccccc2)c2ccccc21 (single isomer, unassigned) [37B] |  |  | 52% | 0%
